These results are taken from patent US20250122174A1 (Shenzhen Yuanli Shenwan Innovative Medicine Co., Ltd., priority 2022, published 2025).

Molecules are shown by their SMILES.

The term IC50 denotes the concentration needed to halve the response being measured. High values mean weaker potency in that assay, low ones greater potency in that assay.

Chain of HPK1 (Q92918 1-346 limits assumed): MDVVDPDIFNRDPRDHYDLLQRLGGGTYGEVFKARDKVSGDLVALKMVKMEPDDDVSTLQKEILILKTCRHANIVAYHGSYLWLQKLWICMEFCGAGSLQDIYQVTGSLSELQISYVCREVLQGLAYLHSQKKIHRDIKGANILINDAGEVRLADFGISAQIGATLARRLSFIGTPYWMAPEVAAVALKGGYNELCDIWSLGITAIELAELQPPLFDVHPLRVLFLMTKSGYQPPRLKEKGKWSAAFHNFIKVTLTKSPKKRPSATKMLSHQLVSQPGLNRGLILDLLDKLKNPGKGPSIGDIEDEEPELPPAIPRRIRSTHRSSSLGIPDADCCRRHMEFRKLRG

The target of the test is HPK1 (Homo sapiens (Human), UniProt Q92918). In words: HPK1 Inhibition Assay (ADP-Glo kinase assay). Type of test: biochemical. As to conditions: ATP 10 μM. An outline of the steps:
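ADP-Glo luminescence read-out after 1 h room-temperature kinase reaction with 10 μM ATP and 0.1 μg/ml MBP. Recombinant human HPK1 at 7.5 ng/μl; buffer 40 mM Tris pH 7.5, 20 mM MgCl2. Compounds serially diluted 5-fold over 10 points from 10 mM DMSO stock.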
The compound `Cc1nc2c(N3C[C@H](N)C(C)(C)C3)c(NC(=O)c3ccc(=O)n(-c4c(F)cccc4F)n3)ccc2n1[C@H]1CCOC1` [Example 150, N-(4-((R)-4-amino-3,3-dimethylpyrrolidin-1-yl)-2-methyl-1-((S)-tetrahydrofuran-3-yl)-1H-benzo[d]imidazol-5-yl)-1-(2,6-difluorophenyl)-6-oxo-1,6-dihydropyridazine-3-carboxamide] returned an IC50 of less than 0.1 µM.

For `Cc1nc2c(N3C[C@H](N)C4(CC4)C3)c(NC(=O)c3ccc(=O)n(-c4c(F)cccc4F)n3)ccc2n1C1CCOCC1` [Example 151, 1-(2,6-difluorophenyl)-N-(4-[(7R)-7-amino-5-azaspiro[2.4]heptan-5-yl]-2-methyl-1-(3,4,5,6-tetrahydro-2H-pyran-4-yl)benzo[d]imidazol-5-yl)-6-oxo-1,2-diazine-3-carboxamide], the IC50 is less than 0.1 µM.

With `Cc1nc2c(N3C[C@H](N)C4(CC4)C3)c(NC(=O)c3ccc(=O)n(-c4c(F)cccc4F)n3)ccc2n1[C@H]1CCOC1` [Example 152, N-(4-((R)-7-amino-5-azaspiro[2.4]heptan-5-yl)-2-methyl-1-((S)-tetrahydrofuran-3-yl)-1H-benzo[d]imidazol-5-yl)-1-(2,6-difluorophenyl)-6-oxo-1,6-dihydropyridazine-3-carboxamide], the IC50 is less than 0.1 µM.

In the case of `C[C@@H]1CN(c2c(NC(=O)c3ccc(=O)n(-c4c(F)cccc4F)n3)ccc3c2ncn3C2CCOCC2)C[C@@H]1N` [Example 153, N-(4-((3R,4R)-3-amino-4-methylpyrrolidin-1-yl)-1-(tetrahydro-2H-pyran-4-yl)-1H-benzo[d]imidazol-5-yl)-1-(2,6-difluorophenyl)-6-oxo-1,6-dihydropyridazine-3-carboxamide], the IC50 is less than 0.1 µM.

`CC(C)n1cnc2c(N3C[C@@H](C)[C@@H](N)C3)c(NC(=O)c3ccc(=O)n(-c4c(F)cccc4F)n3)ccc21` [Example 154, N-(4-((3R,4R)-3-amino-4-methylpyrrolidin-1-yl)-1-isopropyl-1H-benzo[d]imidazol-5-yl)-1-(2,6-difluorophenyl)-6-oxo-1,6-dihydropyridazine-3-carboxamide] came in with an IC50 of less than 0.1 µM.

`Cn1c(C(C)(C)F)nc2c(N3CC[C@@H](N)C3)c(NC(=O)c3ccc(=O)n(-c4c(F)cccc4F)n3)ccc21` [Example 155] showed an IC50 of less than 0.1 µM.

`Cn1c(CC(F)(F)F)nc2c(N3CC[C@@H](N)C3)c(NC(=O)c3ccc(=O)n(-c4c(F)cccc4F)n3)ccc21` [Example 156, (R)-N-(4-(3-aminopyrrolidin-1-yl)-1-methyl-2-(2,2,2-trifluoroethyl)-1H-benzo[d]imidazol-5-yl)-1-(2,6-difluorophenyl)-6-oxo-1,6-dihydropyridazine-3-carboxamide]: the IC50 is less than 0.1 µM.

In the case of `Cn1c(C(C)(C)F)nc2c(N3CC[C@@H](N)C3)c(NC(=O)c3ccc(=O)n(-c4c(F)cccc4F)n3)cc(F)c21` [Example 157, (R)-N-(4-(3-aminopyrrolidin-1-yl)-7-fluoro-2-(2-fluoropropan-2-yl)-1-methyl-1H-benzo[d]imidazol-5-yl)-1-(2,6-difluorophenyl)-6-oxo-1,6-dihydropyridazine-3-carboxamide], the IC50 is less than 0.1 µM.

For the compound `Cn1c(C(C)(C)C(F)(F)F)nc2c(N3CC[C@@H](N)C3)c(NC(=O)c3ccc(=O)n(-c4c(F)cccc4F)n3)ccc21` [Example 158, (R)-N-(4-(3-aminopyrrolidin-1-yl)-1-methyl-2-(1,1,1-trifluoro-2-methylpropan-2-yl)-1H-benzo[d]imidazol-5-yl)-1-(2,6-difluorophenyl)-6-oxo-1,6-dihydropyridazine-3-carboxamide], the IC50 is less than 0.1 µM.

The compound `Cn1c(C(F)F)nc2c(N3CC[C@@H](N)C3)c(NC(=O)c3ccc(=O)n(-c4c(F)cccc4F)n3)ccc21` [Example 159, (R)-N-(4-(3-aminopyrrolidin-1-yl)-2-(difluoromethyl)-1-methyl-1H-benzo[d]imidazol-5-yl)-1-(2,6-difluorophenyl)-6-oxo-1,6-dihydropyridazine-3-carboxamide] yielded an IC50 of less than 0.1 µM.

On to `Cn1c(C2CC2)nc2c(N3CC[C@@H](N)C3)c(NC(=O)c3ccc(=O)n(-c4c(F)cccc4F)n3)ccc21` [Example 160, (R)-N-(4-(3-aminopyrrolidin-1-yl)-2-cyclopropyl-1-methyl-1H-benzo[d]imidazol-5-yl)-1-(2,6-difluorophenyl)-6-oxo-1,6-dihydropyridazine-3-carboxamide], for which the IC50 is less than 0.1 µM.

For the compound `Cn1c(C(F)F)nc2c(N3CC[C@H](N)C3)c(NC(=O)c3ccc(=O)n(-c4c(F)cccc4F)n3)ccc21` [Example 161, (S)-N-(4-(3-aminopyrrolidin-1-yl)-2-(difluoromethyl)-1-methyl-1H-benzo[d]imidazol-5-yl)-1-(2,6-difluorophenyl)-6-oxo-1,6-dihydropyridazine-3-carboxamide], the IC50 is less than 0.1 µM.

`CSCc1nc2c(N3CC[C@@H](N)C3)c(NC(=O)c3ccc(=O)n(-c4c(F)cccc4F)n3)ccc2n1C` [Example 162, (R)-N-(4-(3-aminopyrrolidin-1-yl)-1-methyl-2-((methylthio)methyl)-1H-benzo[d]imidazol-5-yl)-1-(2,6-difluorophenyl)-6-oxo-1,6-dihydropyridazine-3-carboxamide] displayed an IC50 of less than 0.1 µM.

With `CC(C)c1nc2c(N3CC[C@@H](N)C3)c(NC(=O)c3ccnn(-c4c(F)cccc4F)c3=O)ccc2n1C` [Example 163, (R)-N-(4-(3-aminopyrrolidin-1-yl)-2-isopropyl-1-methyl-1H-benzo[d]imidazol-5-yl)-2-(2,6-difluorophenyl)-3-oxo-2,3-dihydropyridazine-4-carboxamide], the IC50 was less than 0.1 µM.

Compound `COc1cccc(F)c1-c1nccc(C(=O)Nc2ccc3c(nc(CS(C)(=O)=O)n3C)c2N2CC[C@@H](N)C2)c1F` [Example 165, N-(4-((R)-3-aminopyrrolidin-1-yl)-1-methyl-2-((methylsulfonyl)methyl)-1H-benzo[d]imidazol-5-yl)-3-fluoro-2-(2-fluoro-6-methoxyphenyl)isonicotinamide] had an IC50 of less than 0.1 µM.

Consider `C[C@@H]1CN(c2c(NC(=O)c3ccc(=O)n(-c4c(F)cccc4F)n3)ccc3c2cnn3C)C[C@@H]1N` [Example 166, N-[4-[(3R,4R)-3-amino-4-methyl-pyrrolidin-1-yl]-1-methyl-indazol-5-yl]-1-(2,6-difluorophenyl)-6-oxo-pyridazine-3-carboxamide], for which the IC50 is less than 0.1 µM.

`Cn1ncc2c(N3CC[C@@H](N)C3)c(NC(=O)c3ccc(=O)n(-c4c(F)cccc4F)n3)ccc21` [Example 167, (R)-N-(4-(3-aminopyrrolidin-1-yl)-1-methyl-1H-indazol-5-yl)-1-(2,6-difluorophenyl)-6-oxo-1,6-dihydropyridazine-3-carboxamide] displayed an IC50 of less than 0.1 µM.

`Cn1ncc2c(N3CCC(N)CC3)c(NC(=O)c3ccc(=O)n(-c4c(F)cccc4F)n3)cc(F)c21` [Example 168, N-(4-(4-aminopiperidin-1-yl)-7-fluoro-1-methyl-1H-indazol-5-yl)-1-(2,6-difluorophenyl)-6-oxo-1,6-dihydropyridazine-3-carboxamide] yielded an IC50 of less than 0.1 µM.

`Cn1ncc2c(N3CCC[C@@H](N)C3)c(NC(=O)c3ccc(=O)n(-c4c(F)cccc4F)n3)cc(F)c21` [Example 169, (R)-N-(4-(3-aminopiperidin-1-yl)-7-fluoro-1-methyl-1H-indazol-5-yl)-1-(2,6-difluorophenyl)-6-oxo-1,6-dihydropyridazine-3-carboxamide] registered an IC50 of less than 0.1 µM.

`C[C@@H]1CN(c2c(NC(=O)c3ccc(=O)n(-c4c(F)cccc4F)n3)cc(F)c3c2cnn3C)C[C@@H]1N` [Example 170, N-(4-((3R,4R)-3-amino-4-methylpyrrolidin-1-yl)-7-fluoro-1-methyl-1H-indazol-5-yl)-1-(2,6-difluorophenyl)-6-oxo-1,6-dihydropyridazine-3-carboxamide]: the IC50 was less than 0.1 µM.

`[2H]C([2H])([2H])n1ncc2c(N3C[C@@H](C)[C@@H](N)C3)c(NC(=O)c3ccc(=O)n(-c4c(F)cccc4F)n3)ccc21` [Example 171, N-(4-((3R,4R)-3-amino-4-methylpyrrolidin-1-yl)-1-(methyl-d3)-1H-indazol-5-yl)-1-(2,6-difluorophenyl)-6-oxo-1,6-dihydropyridazine-3-carboxamide] returned an IC50 of less than 0.1 µM.

In turn, `[2H]C([2H])([2H])n1ncc2c(N3C[C@H](N)C4(CC4)C3)c(NC(=O)c3ccc(=O)n(-c4c(F)cccc4F)n3)ccc21` [Example 172, (R)-N-(4-(7-amino-5-azaspiro[2.4]heptan-5-yl)-1-(methyl-d3)-1H-indazol-5-yl)-1-(2,6-difluorophenyl)-6-oxo-1,6-dihydropyridazine-3-carboxamide] came in with an IC50 of less than 0.1 µM.

For `C[C@H]1CN(c2c(NC(=O)c3ccc(=O)n(-c4c(F)cccc4F)n3)ccc3c2cnn3C)C[C@@H]1N` [Example 173, N-(4-((3R,4S)-3-amino-4-methylpyrrolidin-1-yl)-1-methyl-1H-indazol-5-yl)-1-(2,6-difluorophenyl)-6-oxo-1,6-dihydropyridazine-3-carboxamide], the IC50 was less than 0.1 µM.

`Cn1ncc2c(N3C[C@H](N)C4(CC4)C3)c(NC(=O)c3ccc(=O)n(-c4c(F)cccc4F)n3)ccc21` [Example 174, (R)-N-(4-(7-amino-5-azaspiro[2.4]heptan-5-yl)-1-methyl-1H-indazol-5-yl)-1-(2,6-difluorophenyl)-6-oxo-1,6-dihydropyridazine-3-carboxamide] had an IC50 of less than 0.1 µM.

Regarding `Cn1cc2c(N3CC[C@@H](N)C3)c(NC(=O)c3ccc(=O)n(-c4c(F)cccc4F)n3)ccc2n1` [Example 175, (R)—N-(4-(3-aminopyrrolidin-1-yl)-2-methyl-2H-indazol-5-yl)-1-(2,6-difluorophenyl)-6-oxo-1,6-dihydropyridazine-3-carboxamide], the IC50 was less than 0.1 µM.

On to `Cn1cc2c(N3CCC[C@@H](N)C3)c(NC(=O)c3ccc(=O)n(-c4c(F)cccc4F)n3)ccc2n1` [Example 176, (R)-N-(4-(3-aminopiperidin-1-yl)-2-methyl-2H-indazol-5-yl)-1-(2,6-difluorophenyl)-6-oxo-1,6-dihydropyridazine-3-carboxamide], for which the IC50 was less than 0.1 µM.
